The results in this text go back to patent US11597708B2, “Inhibitors of heat shock factors and uses thereof” (HSF Pharmaceuticals SA, priority 2016, dated 2023).

The experiment has as its system HeLa. Briefly: Alamar Blue viability assay. In kind it is cell-based, human. To be noted: for Viability of HeLa cells (Alamar Blue): 96 hours exposure, attached cells. Here is the method: FIG. 5. (A) Viability of HeLa cell cultures mock-exposed (−) or exposed to the indicated concentrations of compounds 001, 058 or 115. (B) Viability of MM.1S cells mock-exposed (−) or exposed to the indicated concentrations of compound 115. Viability was assayed after 96 hours of exposure using an Alamar Blue assay.
FIG. 6. (A) HeLa cell cultures were mock-exposed (−) or exposed to the indicated concentrations of compound 115 for 24 (left panel) or 96 (right panel) hours. Cell viability of total cultures, floating cells and attached cells was assayed using an Alamar Blue assay. (B) HeLa cell cultures were mock-exposed (−) or exposed to the indicated concentrations of compound 115 for 15-96 hours. Trypan Blue dye exclusion was employed to determine numbers of live cells (left panel) and relative levels of necrotic cells (right panel). (C) HeLa cell cultures were mock-exposed (−) or exposed to the indicated concentrations of compound 115 for 6 and 24 h. Shown are relative levels of early apoptotic cells (annexin-positive, 7 aminoactinomycin D-negative). (D) Flow cytometric analysis of DNA of HeLa cell cultures mock-exposed (−) or exposed to the indicated concentrations of compound 115 for 6, 15 and 24 hours. Relative levels of apoptotic cells are indicated.
Cultures of HeLa cells were exposed for 96 hours to different concentrations of IHSF 001, 058 and 115, and viability was assessed using an Alamar Blue assay. It is noted that this standard assay examines attached cells only. This subject will be discussed in more detail below. […] The relative cytotoxicity of the compounds appears to parallel their respective activities as inhibitors of HSF1 function (inhibition of RLuc expression in Z74 cells). We next examined the viability of different human cancer cell lines subsequent to a 96-hour exposure to compound 115 (Table 3). HSF1 was reported as being required for optimal p21 expression and for p53-mediated cell cycle arrest in response to genotoxins. Logan, I. R. et al. (2009) Nucleic Acids Res. 37: 2962-2971. […] Cell lines of different p53 status were included in the experiments in order to find out whether sensitivity to IHSF 115 was related to p53 status. […] No effect of p53 status could be discovered. It is noted that a number of additional HSF inhibitors of the present disclosure were tested and found to effectively reduce the viability of human cancer cells.
Further studies were aimed at finding out whether IHSF-exposed cancer cells were only growth-arrested or were actually killed and, if they were killed, by what mechanism. In one type of experiment, parallel sets of HeLa cell cultures were exposed for either 24 or 96 hours to different concentrations of IHSF 115. The first set was assayed for viability by the Alamar Blue assay without prior removal of floating cells. Attached and floating cells were assayed separately in the second set; floating cells were subsequently re-plated and incubated for 72 hours without compound. […] The viability signal (in whole cultures and, more dramatically, when only attached cells were analyzed) decreased as a function of IHSF concentration. Most floating cells were incapable of re-attaching in the absence of compound (not shown); apparently, these cells had died. More profound effects were observed after 96 hours (right panel) than after 24 hours of exposure (left panel). […] Stained (necrotic) and unstained (live) cells were counted (FIG. 6B). […]
Background: The colour change of resazurin is a common sign of viable cells or microbes.

As to `CCOC(=O)/C=C/C(=O)Nc1nccs1` [IHSF 001, (E)-ethyl 4-oxo-4-(thiazol-2-ylamino)but-2-enoate], the “Viability of HeLa cells (Alamar Blue)” value (different concentrations) is recorded as “decreased in a dose-dependent fashion”.

Regarding `CN(C(=O)/C=C/C1=NCCCO1)c1ncc(-c2cccnc2)s1` [IHSF 115, (E)-3-(5,6-Dihydro-4H-[1,3]oxazin-2-yl)-N-methyl-N-(5-pyridin-3-yl-thiazol-2-yl)-acrylamide], the “killing of HeLa cells (Alamar Blue, total, floating and attached cells)” value (24 or 96 hours exposure, different concentrations) is “killed by IHSF 115 in a concentration- and exposure time-dependent fashion”. Besides, under “different concentrations”, the “Viability of HeLa cells (Alamar Blue)” value is reported as “decreased in a dose-dependent fashion”. For the same molecule, the EC50 (usually the concentration that produces a half-maximal response) (Homo sapiens, HeLa, Cervical, P53 Wt, 96-hour exposure) was determined as 6.2 µM. In the case of `CCOC(=O)/C=C/C(=O)Nc1ncc(-c2cccnc2)s1` [IHSF 058, (E)-3-(5-Pyridm-3-yl-thiazol-2-ylcarbamoyl)-acrylic acid ethyl ester], where the note is “different concentrations”, the “Viability of HeLa cells (Alamar Blue)” value is “decreased in a dose-dependent fashion”.
